Data reported in paper PMC4076210, “Discovery of Novel AKT Inhibitors with Enhanced Anti-Tumor Effects in Combination with the MEK Inhibitor” (PLoS ONE, 2014).
Where two headings read alike, the source gives them in different places.

Key:
CK2(h) = biological target: T1, CK2(h) (Homo sapiens, UniProt P68400); assay: Kinase panel; assay type: biochemical
T1 construct: purchased Millipore KinaseProfiler

cKit(D816H)(h) = biological target: T2, cKit(D816H)(h) (Homo sapiens, UniProt P10721, D816H); assay: Kinase panel; assay type: biochemical
T2 construct: purchased Millipore KinaseProfiler

DAPK2(h) = biological target: T3, DAPK2(h) (Homo sapiens, UniProt Q9UIK4); assay: Kinase panel; assay type: biochemical
T3 construct: purchased Millipore KinaseProfiler

EGFR(L861Q)(h) = biological target: T4, EGFR(L861Q)(h) (Homo sapiens, UniProt P00533, L861Q); assay: Kinase panel; assay type: biochemical
T4 construct: purchased Millipore KinaseProfiler

EphA3(h) = biological target: T5, EphA3(h) (Homo sapiens, UniProt P29320); assay: Kinase panel; assay type: biochemical
T5 construct: purchased Millipore KinaseProfiler
T5 sequence (P29320 21-983): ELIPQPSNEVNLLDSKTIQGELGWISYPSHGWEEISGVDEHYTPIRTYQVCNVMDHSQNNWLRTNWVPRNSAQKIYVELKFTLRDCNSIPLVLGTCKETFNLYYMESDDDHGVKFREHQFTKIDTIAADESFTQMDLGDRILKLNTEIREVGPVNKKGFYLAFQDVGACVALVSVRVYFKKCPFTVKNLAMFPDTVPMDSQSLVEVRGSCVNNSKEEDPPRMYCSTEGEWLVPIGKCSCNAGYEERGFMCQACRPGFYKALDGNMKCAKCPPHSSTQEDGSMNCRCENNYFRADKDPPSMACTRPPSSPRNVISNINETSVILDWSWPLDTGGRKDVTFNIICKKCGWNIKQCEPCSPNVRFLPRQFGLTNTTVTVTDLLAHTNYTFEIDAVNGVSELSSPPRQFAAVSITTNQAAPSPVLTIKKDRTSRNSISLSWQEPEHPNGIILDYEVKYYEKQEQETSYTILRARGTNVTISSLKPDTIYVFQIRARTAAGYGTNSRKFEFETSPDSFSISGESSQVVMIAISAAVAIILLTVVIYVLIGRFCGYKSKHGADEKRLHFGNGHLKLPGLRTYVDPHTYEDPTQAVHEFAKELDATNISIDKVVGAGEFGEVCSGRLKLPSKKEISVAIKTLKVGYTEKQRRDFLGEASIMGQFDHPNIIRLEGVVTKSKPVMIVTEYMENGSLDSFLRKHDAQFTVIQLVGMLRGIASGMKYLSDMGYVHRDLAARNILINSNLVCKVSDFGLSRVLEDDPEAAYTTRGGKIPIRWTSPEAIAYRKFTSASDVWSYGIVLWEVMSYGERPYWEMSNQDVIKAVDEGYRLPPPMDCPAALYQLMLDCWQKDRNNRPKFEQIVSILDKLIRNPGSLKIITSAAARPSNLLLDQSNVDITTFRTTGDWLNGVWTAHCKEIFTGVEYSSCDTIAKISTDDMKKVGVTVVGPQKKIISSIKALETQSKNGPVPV

IKKα(h) = biological target: T6, IKKα(h) (Homo sapiens, UniProt O15111); assay: Kinase panel; assay type: biochemical
T6 construct: purchased Millipore KinaseProfiler
T6 sequence (O15111 1-745): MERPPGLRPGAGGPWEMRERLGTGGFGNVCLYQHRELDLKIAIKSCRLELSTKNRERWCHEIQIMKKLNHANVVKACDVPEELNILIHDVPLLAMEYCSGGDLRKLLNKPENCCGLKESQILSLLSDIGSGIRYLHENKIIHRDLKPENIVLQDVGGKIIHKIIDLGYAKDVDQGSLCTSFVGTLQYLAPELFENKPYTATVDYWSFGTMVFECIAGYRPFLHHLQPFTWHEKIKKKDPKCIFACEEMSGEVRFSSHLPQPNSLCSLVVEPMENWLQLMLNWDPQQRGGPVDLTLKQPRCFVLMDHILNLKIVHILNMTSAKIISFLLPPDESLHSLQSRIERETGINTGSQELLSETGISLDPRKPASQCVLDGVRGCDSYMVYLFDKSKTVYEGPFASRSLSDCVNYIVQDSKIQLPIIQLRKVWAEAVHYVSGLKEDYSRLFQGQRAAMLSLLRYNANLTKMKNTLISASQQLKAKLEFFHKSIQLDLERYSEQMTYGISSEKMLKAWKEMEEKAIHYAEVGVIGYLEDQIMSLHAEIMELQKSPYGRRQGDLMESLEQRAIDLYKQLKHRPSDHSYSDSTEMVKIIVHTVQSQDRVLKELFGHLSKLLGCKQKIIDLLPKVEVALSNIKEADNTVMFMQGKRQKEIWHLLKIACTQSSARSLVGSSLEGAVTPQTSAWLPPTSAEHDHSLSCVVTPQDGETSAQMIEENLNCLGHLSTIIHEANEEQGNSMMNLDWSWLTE

PKA = PKA (Homo sapiens, UniProt P17612); assay: Kinase IC50 assay; assay type: biochemical
PKCθ = PKCθ (Homo sapiens, UniProt Q04759); assay: Kinase IC50 assay; assay type: biochemical
pPRAS40 in BT474 = assay: phospho-PRAS40 ELISA; assay type: cell-based; settings: Homo sapiens, BT-474; BT474, mean ± std dev
Method: (§1) ELISA plates were prepared by coating with anti-GSK3β antibody (R&D Systems), and blocked with 5% Milk/0.1% Tween-20. Cells were seeded at 25,000 cells/96-well overnight and treated with DMSO or various concentrations of drug for 1 h. Cells were lysed in 20 mM Tris-HCl (pH 8.0), 137 mM NaCl, 2 mM EDTA, 10% glycerol and 1% Triton X-100 and lysates transferred to ELISA plates and incubated overnight. The plates were washed and incubated with rabbit anti-phospho-GSK3β (Ser9) antibody (R&D Systems) for 1 h. After washing, plates were developed using HRP-linked anti-rabbit IgG, and 3,3′,5,5′-tetramethylbenzidine as substrate. Absorption was measured in a microplate spectrophotometer at 450 nm. The phospho-PRAS40 ELISA followed similar methodology as above with the exception of using a commercially available PRAS40 (pThr246) kit (Biosource) and following manufacturers' instructions for the ELISA analysis.

pPRAS40 in LNCaP = assay: phospho-PRAS40 ELISA; assay type: cell-based; settings: Homo sapiens, mean ± std dev
Method: as §1

T3 sequence (Q9UIK4 whole entry): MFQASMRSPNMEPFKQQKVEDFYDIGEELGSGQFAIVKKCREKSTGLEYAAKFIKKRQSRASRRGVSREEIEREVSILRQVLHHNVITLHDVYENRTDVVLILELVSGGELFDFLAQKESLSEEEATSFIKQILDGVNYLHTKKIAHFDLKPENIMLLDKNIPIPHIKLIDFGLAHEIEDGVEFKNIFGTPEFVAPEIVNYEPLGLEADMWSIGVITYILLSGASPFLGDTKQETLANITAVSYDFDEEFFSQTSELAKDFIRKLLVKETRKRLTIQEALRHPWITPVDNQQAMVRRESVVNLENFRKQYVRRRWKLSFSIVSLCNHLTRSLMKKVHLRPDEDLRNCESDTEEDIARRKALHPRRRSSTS
T4 sequence (P00533 25-1210 L861Q): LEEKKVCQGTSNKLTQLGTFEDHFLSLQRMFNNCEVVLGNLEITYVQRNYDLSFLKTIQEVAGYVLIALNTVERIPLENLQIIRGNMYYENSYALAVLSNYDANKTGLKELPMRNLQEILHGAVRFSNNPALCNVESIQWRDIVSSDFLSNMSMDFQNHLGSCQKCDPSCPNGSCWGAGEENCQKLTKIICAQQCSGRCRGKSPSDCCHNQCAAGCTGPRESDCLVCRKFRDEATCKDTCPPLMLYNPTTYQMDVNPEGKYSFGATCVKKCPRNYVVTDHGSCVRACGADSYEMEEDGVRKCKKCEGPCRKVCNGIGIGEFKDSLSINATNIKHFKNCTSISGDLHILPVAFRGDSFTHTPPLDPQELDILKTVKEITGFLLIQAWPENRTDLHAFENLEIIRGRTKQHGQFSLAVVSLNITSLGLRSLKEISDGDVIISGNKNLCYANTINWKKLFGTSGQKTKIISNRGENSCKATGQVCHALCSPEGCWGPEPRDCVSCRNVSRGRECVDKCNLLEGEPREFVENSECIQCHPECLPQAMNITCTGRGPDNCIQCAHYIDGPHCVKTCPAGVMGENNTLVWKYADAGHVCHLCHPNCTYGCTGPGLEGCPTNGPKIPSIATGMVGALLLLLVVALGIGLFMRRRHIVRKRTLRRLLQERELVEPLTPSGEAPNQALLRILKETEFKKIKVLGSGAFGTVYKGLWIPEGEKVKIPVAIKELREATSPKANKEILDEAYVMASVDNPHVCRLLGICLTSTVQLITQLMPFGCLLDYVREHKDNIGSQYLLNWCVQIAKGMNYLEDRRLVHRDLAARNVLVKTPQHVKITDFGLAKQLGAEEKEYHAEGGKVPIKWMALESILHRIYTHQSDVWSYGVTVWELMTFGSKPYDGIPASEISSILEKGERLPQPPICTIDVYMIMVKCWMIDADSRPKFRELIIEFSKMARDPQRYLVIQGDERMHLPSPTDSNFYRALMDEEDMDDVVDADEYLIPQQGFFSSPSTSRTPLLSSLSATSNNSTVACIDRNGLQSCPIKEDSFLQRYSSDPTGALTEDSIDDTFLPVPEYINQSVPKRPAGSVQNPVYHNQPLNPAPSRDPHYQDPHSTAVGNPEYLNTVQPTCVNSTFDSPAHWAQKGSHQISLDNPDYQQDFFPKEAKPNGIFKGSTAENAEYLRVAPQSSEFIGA
T2 sequence (P10721 26-976 D816H): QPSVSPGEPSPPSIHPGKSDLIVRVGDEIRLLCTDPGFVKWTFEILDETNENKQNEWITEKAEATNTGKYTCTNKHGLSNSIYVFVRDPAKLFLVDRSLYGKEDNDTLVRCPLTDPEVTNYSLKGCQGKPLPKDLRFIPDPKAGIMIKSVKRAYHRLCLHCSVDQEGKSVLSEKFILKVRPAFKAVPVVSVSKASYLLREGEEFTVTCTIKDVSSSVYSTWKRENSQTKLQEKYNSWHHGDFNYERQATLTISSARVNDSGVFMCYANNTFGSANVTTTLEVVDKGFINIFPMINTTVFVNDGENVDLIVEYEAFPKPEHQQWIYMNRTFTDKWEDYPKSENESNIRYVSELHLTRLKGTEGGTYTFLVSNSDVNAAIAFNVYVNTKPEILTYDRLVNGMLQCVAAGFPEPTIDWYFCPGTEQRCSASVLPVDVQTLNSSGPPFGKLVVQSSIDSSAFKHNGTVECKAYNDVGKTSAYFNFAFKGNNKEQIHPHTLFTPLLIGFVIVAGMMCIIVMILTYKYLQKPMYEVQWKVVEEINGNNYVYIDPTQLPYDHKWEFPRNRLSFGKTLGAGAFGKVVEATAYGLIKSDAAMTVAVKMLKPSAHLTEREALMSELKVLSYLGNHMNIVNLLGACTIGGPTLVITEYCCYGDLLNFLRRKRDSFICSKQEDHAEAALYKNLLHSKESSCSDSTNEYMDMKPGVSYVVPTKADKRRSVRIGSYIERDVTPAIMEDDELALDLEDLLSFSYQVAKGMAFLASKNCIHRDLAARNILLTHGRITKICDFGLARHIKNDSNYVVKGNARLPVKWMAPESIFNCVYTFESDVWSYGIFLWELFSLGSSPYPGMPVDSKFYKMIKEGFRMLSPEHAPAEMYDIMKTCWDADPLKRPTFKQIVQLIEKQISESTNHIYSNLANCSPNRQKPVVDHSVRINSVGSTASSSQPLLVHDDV
T1 sequence (P68400 whole entry): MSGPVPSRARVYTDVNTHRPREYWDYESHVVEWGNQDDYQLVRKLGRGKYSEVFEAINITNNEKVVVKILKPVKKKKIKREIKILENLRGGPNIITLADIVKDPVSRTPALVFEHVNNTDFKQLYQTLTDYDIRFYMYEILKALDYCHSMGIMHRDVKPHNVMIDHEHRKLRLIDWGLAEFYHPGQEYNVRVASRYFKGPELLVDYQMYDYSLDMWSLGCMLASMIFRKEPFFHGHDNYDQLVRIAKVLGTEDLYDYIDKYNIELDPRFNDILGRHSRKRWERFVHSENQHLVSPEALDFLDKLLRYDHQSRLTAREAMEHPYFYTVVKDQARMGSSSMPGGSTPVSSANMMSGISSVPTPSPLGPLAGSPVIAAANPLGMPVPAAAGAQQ
T1 sequence (P67870 whole entry partner): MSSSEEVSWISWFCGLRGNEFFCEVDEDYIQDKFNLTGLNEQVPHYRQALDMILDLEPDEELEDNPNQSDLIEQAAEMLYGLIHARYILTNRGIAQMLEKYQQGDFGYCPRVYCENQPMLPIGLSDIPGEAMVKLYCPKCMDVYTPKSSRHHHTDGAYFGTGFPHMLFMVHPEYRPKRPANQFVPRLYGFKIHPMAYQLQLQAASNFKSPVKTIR
Chain of PKCθ (Q04759 whole entry): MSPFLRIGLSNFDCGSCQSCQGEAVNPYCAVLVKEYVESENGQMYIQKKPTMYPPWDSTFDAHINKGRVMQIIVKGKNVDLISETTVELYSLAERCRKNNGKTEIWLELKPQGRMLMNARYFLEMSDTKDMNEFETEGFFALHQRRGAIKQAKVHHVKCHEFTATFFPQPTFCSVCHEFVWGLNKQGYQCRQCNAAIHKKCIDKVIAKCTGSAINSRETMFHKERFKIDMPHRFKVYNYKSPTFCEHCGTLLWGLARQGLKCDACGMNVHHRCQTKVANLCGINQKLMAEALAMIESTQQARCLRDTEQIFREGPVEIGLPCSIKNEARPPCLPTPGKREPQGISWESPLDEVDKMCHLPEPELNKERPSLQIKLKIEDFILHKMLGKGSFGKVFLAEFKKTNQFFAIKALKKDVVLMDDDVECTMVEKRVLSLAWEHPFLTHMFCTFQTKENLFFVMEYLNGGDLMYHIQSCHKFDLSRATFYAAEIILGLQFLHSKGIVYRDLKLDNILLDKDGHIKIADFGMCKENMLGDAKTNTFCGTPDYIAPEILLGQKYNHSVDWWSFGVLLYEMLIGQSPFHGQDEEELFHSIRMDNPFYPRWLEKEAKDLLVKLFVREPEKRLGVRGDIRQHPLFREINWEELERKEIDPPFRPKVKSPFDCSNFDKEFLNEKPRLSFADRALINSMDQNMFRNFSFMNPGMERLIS

Cn1ncc(Cl)c1-c1cc(C(=O)N[C@H](CN)Cc2cccc(F)c2)sc1Cl [GSK2110183]
inhibition at 0.5 µM (CK2(h)): 3%
inhibition at 10 µM (CK2(h)): 8%
inhibition at 0.5 µM (cKit(D816H)(h)): -6%
inhibition at 10 µM (cKit(D816H)(h)): -3%
inhibition at 0.5 µM (DAPK2(h)): -1%
inhibition at 10 µM (DAPK2(h)): 37%
inhibition at 0.5 µM (EGFR(L861Q)(h)): -4%
inhibition at 10 µM (EGFR(L861Q)(h)): 21%
inhibition at 0.5 µM (EphA3(h)): 1%
inhibition at 10 µM (EphA3(h)): 11%
inhibition at 0.5 µM (IKKα(h)): 9%
inhibition at 10 µM (IKKα(h)): 8%
IC50 (PKA): 1.3 nM
IC50 (PKCθ): 510 nM
IC50 (pPRAS40 in BT474): 121 ± 40 nM
IC50 (pPRAS40 in LNCaP): 104 ± 5 nM

Cn1ncc(Cl)c1-c1cc(C(=O)N[C@H](CN)Cc2ccc(F)c(F)c2)oc1Cl [GSK2141795]
inhibition at 0.5 µM (CK2(h); 0.5 µM, read-out: % Inhibition): 4%
inhibition at 10 µM (CK2(h); 10 µM, read-out: % Inhibition): 9%
inhibition at 0.5 µM (cKit(D816H)(h); 0.5 µM, read-out: % Inhibition): -15%
inhibition at 10 µM (cKit(D816H)(h); 10 µM, read-out: % Inhibition): 43%
inhibition at 0.5 µM (DAPK2(h); 0.5 µM, read-out: % Inhibition): -10%
inhibition at 10 µM (DAPK2(h); 10 µM, read-out: % Inhibition): 58%
inhibition at 0.5 µM (EGFR(L861Q)(h); 0.5 µM, read-out: % Inhibition): -13%
inhibition at 10 µM (EGFR(L861Q)(h); 10 µM, read-out: % Inhibition): 21%
inhibition at 0.5 µM (EphA3(h); 0.5 µM, read-out: % Inhibition): -7%
inhibition at 10 µM (EphA3(h); 10 µM, read-out: % Inhibition): 21%
inhibition at 0.5 µM (IKKα(h); 0.5 µM, read-out: % Inhibition): -12%
inhibition at 10 µM (IKKα(h); 10 µM, read-out: % Inhibition): 6%
IC50 (PKA): 2 nM
IC50 (PKCθ): 64 nM
IC50 (pPRAS40 in BT474): 39 ± 0.5 nM
IC50 (pPRAS40 in LNCaP): 55 ± 2 nM
